Experimental data: patent US20110081428A1, “Use of thioflavin-like compounds to increase life span and/or health span” (priority 2009, published 2011)
“Also recorded” adds a separate entry of the source.

Columns and labels:
Format in all cases: in vivo, Caenorhabditis elegans
[1] = test system: UNC-52 (perlecan) in HE250; assay: Perlecan immunolocalization; details: HE250, 50 μM ThT, 24 h at 25° C.
Method: (§1) For fluorescent microscopy, TJ356 zIs356 IV [daf-16::daf-16-gfp+rol-6] or CF2189 Is001(skn-1::gfp+rol-6) were paralyzed with 1 mM levamisole mounted on 1% agarose pads and imaged using Olympus BX51 (60× objective) and HCImage software (Hamamatsu). For immunofluorescence, N2, […], CB1157 unc-54(e1157) or CL4176 dvIs27 [myo-3::Aβ(3 to 42)-let 3′UTR(pAF29); pRF4 (rol-6(su1006))] worms were treated for 24-36 h with or without 50 μM ThT at 25° C. After this period the worms were collected, rinsed, and fixed in 4% paraformaldehyde overnight. […] Paramyosin and perlecans were detected with primary monoclonal antibodies 5-23 and MH3 (developed by Henry Epstein and Robert H. Waterston and obtained from the Developmental Studies Hybridoma Bank developed under the auspices of the NICHD and maintained by The University of Iowa, Department of Biology, Iowa City, Iowa 52242) and AlexaFluor 633 goat anti-mouse (Molecular Probes) as secondary antibody. Soluble oligomers and Aβ peptide were detected with anti polyclonal All (Invitrogen) and 6E10 monoclonal (Covance) primary antibodies, respectively, with AlexaFluor 568 goat anti-rabbit and AlexaFluor 488 goat anti-mouse (Molecular Probes) as secondary antibodies. Images were processed and quantified by using Image Analyst MK II (Novato, Calif.).

[2] = test system: UNC-54 (paramyosin) in unc-54(e1157)I; assay: Paramyosin immunolocalization / sarcomere structure; details: 50 μM ThT, 24 h at 25° C.
Method: as §1

[3] = test system: HSF-1 RNA; assay: Real time quantitative PCR, hsf-1; details: 50 μM ThT, 3, 6 and 12 days of treatment
Method: Twelve single adults from control or 50 μM ThT populations were picked after 3, 6 and 12 days of treatment into 5 μl of distilled water and flash frozen until extraction. Individual worms were extracted using the RNeasy Micro Kit, TissueLyser and QIAcube (Qiagen). Using the manufacturer's standard Animal Tissue protocol, each sample was homogenized in buffer RLT/Bme (Qiagen) on the TissueLyser (6 min total at 20 Hz). Samples, reagents and columns were then loaded into the QIAcube robot, and processed using the “RNeasy Micro—Animal tissues and cells—DNase digest” program. Each sample was then eluted in 14 μl of Nuclease-free water. cDNA templates for the Real Time PCR reactions were made using a combination of Message Sensor RT kit (Ambion's) and TaqMan PreAmp Master Mix (Applied Biosystems). The entire worm sample was added to the RT reaction and reversed transcribed at 50° C. for 20 min, using Message Sensor's “Two Step RT-PCR Protocol” (sample RT's were randomized). Then 2.5 μl of the cDNA sample was pre-amplified with a “4×Multiplex Primer Mix” for 14 cycles using TaqMan PreAmp master mix and protocol (ABI). Two modifications were made to ABI's protocol: 1. the reaction volume was reduced to 10 μl and 2. after pre-amplification, each cDNA sample was diluted 1:5 with 1XTE Buffer (Promega). cDNA samples were stored at −20° C. until needed. […]

[4] = test system: N2 worms; assay: Locomotory ability / spontaneous movement (body bends); details: 50 μM ThT
Method: Data are presented as bends/min and represent the average of three independent experiments. *p<0.0001. e) Dose-response Kaplan-Meier survival curves of synchronously ageing hermaphrodite N2 populations exposed to 0 (control) to […], f) HBX and g) HBT at 20° C. (−) Control, (▪) 1 nM, ([…]) 10 μM, (▴) 100 μM, (▾) […]. Graphs are representative of three independent experiments.

[5] = test system: CW152 gas-1(fc21) X; assay: Ethanol sensitivity of gas-1 ts mutant; details: 0.4 M EtOH, after 3 days of treatment
Method: (§2) Scoring for paralysis was initiated 2 and 8 days after temperature upshift for CL4176 and AM140, respectively. […] For sensitivity to EtOH or levamisole resistance, CW152 gas-1 (fc21) X and ZZ26 unc-63(x26)I worms were picked into 0.4 M EtOH or 50 μM levamisole, respectively, equilibrated for 5 min, and scored for paralysis as described above. Treated and untreated worms were compared with an unpaired t-test (implemented in Prism 4, Graphpad™ Software, Inc., San Diego, Calif., USA).

[6] = test system: HE250 [unc-52(e669su250)II]; assay: RNAi knockdown of proteostasis factors with paralysis scoring; details: HE250, 50 μM ThT
Method: RNAi bacterial strains expressing double-stranded RNA that inactivates specified genes were cultured and utilized as previously described. (Timmons, L., Court, D. L. & Fire, A. Ingestion of bacterially expressed dsRNAs can produce specific and potent genetic interference in Caenorhabditis elegans. Gene 263, 103-112 (2001).) Briefly, eggs isolated from synchronous populations of unc-52(e669su250) cultures were placed on fresh RNAi plates and allowed to grow at 15° C.; 3 days later, L4 molt animals were transferred to new plates seeded with the same bacteria in presence or absence of ThT and switched to 25° C. The cultures were scored for paralysis after 48 h of treatment as described above. In all cases, 1 mM isopropyl-beta-D-thiogalactopyranoside (IPTG) was used for induction of double stranded RNA. In all the cases the identity of the clones was confirmed by sequencing.

[7] = test system: HE250 [unc-52(e669su250)II]; assay: Worm paralysis assay, unc-52 ts mutant
Method: as §2

Cc1ccc2c(c1)sc(-c1ccc(N(C)C)cc1)[n+]2C.[Cl-] [ThT, 4-(3,6-dimethyl-1,3-benzothiazol-3-ium-2-yl)-N,N-dimethylaniline chloride]
perlecan organization [1]: restored perlecan organization
muscle sarcomere structure [2]: prevented the disruption of the muscle sarcomeres
HSF-1 RNA levels [3]: no changes were detected
age-related decline in spontaneous movement [4]: retarded age-related decline in spontaneous movement
ethanol sensitivity [5]: decreases the ethanol sensitivity
ThT protection from paralysis with RNAi of proteasome and autophagy genes ([6]; RNAi aip-1, atg-9, vps-34): required for the beneficial effects of ThT
ThT protection from paralysis with RNAi of acute stress genes ([6]; RNAi hsp-16.2, hsp-16.41): decreased
ThT suppression of paralysis with daf-16 RNAi ([6]; daf-16 (RNAi)): potentiated
ThT effect on paralysis with lmp-2 RNAi ([6]; lmp-2(RNAi)): significantly improved the ThT effect on paralysis
ThT effect on paralysis with skn-1 RNAi ([6]; skn-1 (RNAi)): required for ThT effect on the paralysis phenotype
paralysis phenotype, continuous exposure and addition after 18 h at restrictive temperature ([7]; HE250, 50 μM ThT, scored after 36 h at 25° C.): Prevention of paralysis phenotype
paralysis phenotype of unc-52 mutant ([7]; HE250, 25° C., 36 h, 50 μM ThT, 100 μM curcumin, 100 μM rifampicin): suppressed paralysis; also recorded: Protection
